Assay results as given in patent publication US10894255B2, “Leukocyte and microparticles fractionation using microfluidics” (Nanyang Technological University, priority 2015, dated 2021).

Assays:
Type in all cases: cell-based, human
[1] = tested on: CD11b expression on neutrophils; test: Flow cytometric analysis of CD11b expression on healthy and treated neutrophils; settings: glucose 30 mM, TNF-α 10 ng/mL or PMA 1 μM treated vs healthy neutrophils; flow cytometry
Description: (§1) (A) Image overlay (60× magnification) from captured cell rolling videos highlight distinct differences in rolling trajectories between healthy and TNF-α-treated neutrophils. (B) Cumulative frequency curves of neutrophil rolling speed for healthy, glucose-treated (30 mM), TNF-α-treated (10 ng/mL) and PMA-treated (1 μM) neutrophils. […] Flow cytometric analysis of (C) PSGL-1 and (D) CD11b expression on healthy and treated neutrophils. Cells were incubated with mouse APC anti-human PSGL-1 IgG2a/mouse APC IgG2a isotype and FITC mouse anti-human CD11b (activated) IgG1/FITC mouse IgG1 isotype.
(§2) To study neutrophil rolling phenotype on E-selectin, a straight microchannel (1 cm (l)×400 μm (w)×60 μm (h)) with recombinant human E-selectin (50 μg/mL) was coated to simulate flow conditions in post capillary venules (˜1-10 dynecm^−2). DFF-sorted neutrophils were pumped into the channel at physiological shear conditions (2 dynecm^−2) and timelapse imaging was used to capture neutrophil rolling. A MATLAB tracking algorithm was developed to track neutrophil rolling trajectories and speed measurement for high throughput single cell analysis. […]

[2] = tested on: DFF-purified neutrophils rolling on E-selectin; test: Microfluidic neutrophil rolling assay on E-selectin-coated microchannel; settings: for Neutrophil rolling speed on E-selectin: DFF-sorted neutrophils treated with glucose 30 mM, TNF-α 10 ng/mL or PMA 1 μM, shear 2 dynecm^−2, compared with healthy neutrophils, P<0.005
Text: In another aspect, the present invention also relates to a microfluidic flow channel, wherein its inner wall is coated with E-selectin. Such channel may have a length of at least 0.1 cm. Preferably, the channel has a length of 0.5-2 cm. The width may be at least 200 μm, preferably between 350-500 μm. The channel height may be at least 40 μm, preferably between 45-75 μm and more preferably the height is 60 μm. An example to determine the rolling speed by using an E-selectin coated channel is given below. Briefly, a straight microchannel (1 cm length by 400 μm width by 60 μm height) can be coated with E-selectin (50 μg/mL, Peprotech) for 1 h at 4° C. and blocked with 0.5% BSA in PBS for 30 min at room temperature. After blocking, the channel can be connected to a syringe loaded with 0.1% BSA in PBS to prime and wash away excess E-selectin in the channel. For rolling assay, CaCl2 (20 μM, Sigma-Aldrich) can be added to the DFF-purified neutrophils to facilitate the calcium-dependent interactions of neutrophil binding and rolling on E-selectin. ˜10-20 μL of DFF-purified neutrophils (˜10^6 cells/mL) can be loaded at the inlet reservoir and the syringe can be set to withdraw at 2.6 μL/min (˜2 dynecm^−2) to initiate neutrophil rolling. Phase contrast image can be captured for 30 s at the centre of the microchannel every 0.5 s interval (total of 61 frames) at 20× magnification using MetaMorph software (Molecular Devices). […] The neutrophils can then be washed at 1000×g for 4 min and resuspended to a concentration of ˜10^6 cells/mL with 20 μM CaCl2 for rolling assay.
To study neutrophil rolling phenotype on E-selectin, a straight microchannel (1 cm (l)×400 μm (w)×60 μm (h)) with recombinant human E-selectin (50 μg/mL) was coated to simulate flow conditions in post capillary venules (˜1-10 dynecm^−2). DFF-sorted neutrophils were pumped into the channel at physiological shear conditions (2 dynecm^−2) and timelapse imaging was used to capture neutrophil rolling. A MATLAB tracking algorithm was developed to track neutrophil rolling trajectories and speed measurement for high throughput single cell analysis. […] These differences in rolling phenotypes were further investigated by measuring neutrophil PSGL-1 expression, which is known to mediate leukocyte rolling on E-selectin, as well as CD11b, a Mac-1 integrin expressed on leukocytes that supports adhesion to E-selectin.
After having established that neutrophils from T2DM patients rolled faster on E-selectin as compared to healthy subjects, it was determined if these functional differences can be associated to clinical conditions by analyzing rolling speed frequencies in T2DM patients that are higher than the average rolling speed of healthy subjects (≥5 μm/sec). […]

[3] = tested on: PSGL-1 expression on neutrophils; test: Flow cytometric analysis of PSGL-1 expression on healthy and treated neutrophils; settings: glucose 30 mM, TNF-α 10 ng/mL or PMA 1 μM treated vs healthy neutrophils; flow cytometry
Description: as §1, §2

| Compound | Neutrophil CD11b level [1] | Neutrophil rolling speed on E-selectin [2] | PSGL-1 expression on neutrophils [3] | Average rolling speed of drug-treated neutrophils ([2]; DFF-purified neutrophils of healthy subjects incubated with metformin 1 mM or pravastatin 20 μM for 1 h, vs untreated controls, all paired observations, P<0.05) | Neutrophil rolling trajectories on E-selectin ([2]; TNF-α-activated neutrophils vs healthy neutrophils (steady rolling in a straight path)) |
| --- | --- | --- | --- | --- | --- |
| CCCCCCCCCCCCCC(=O)O[C@@H]1[C@@H](C)[C@@]2(O)[C@@H](C=C(CO)C[C@]3(O)C(=O)C(C)=C[C@@H]23)[C@@H]2C(C)(C)[C@]12OC(C)=O [PMA] | higher increase | did not roll, but instead adhered firmly on E-selectin | downregulation was more significant | – | – |
| CN(C)C(=N)N=C(N)N [metformin] | – | – | – | higher than controls | – |
| tumor necrosis factor alpha [TNF-α] | – | higher than healthy neutrophils | decreased | – | discontinuous with “flipping” motions |
